We go through two molecules from patent publication US12691175B2, “Drug transdermal delivery system” (Xiamen University, priority 2019, dated 2026).

In one series the test system is venous thrombus. Briefly: Rabbit ear thrombus model, topical low-molecular-weight heparin therapy. It is filed as in vivo, New Zealand rabbit. The settings on record: 48 hours; for state of thrombus in blood vessel (slice, FIG. 7): 300 U/kg topical. The procedure: An experimental method: • A topical injection of thrombin is used to establish an animal model of a rabbit ear thrombus: hair of an ear of the New Zealand rabbit is carefully shaven off, a blood vessel section from an external ear vein with a length of about 2 cm and having fewer branches is selected, 40 U of the thrombin is injected into the blood vessel section, and a hemostatic clip is used to block a blood flow of the blood vessel section at a proximal end of a heart. After 2 hours, the blood is completely coagulated to form a venous thrombus, and the hemostatic clip is then loosen. A length of the venous thrombus is measured and recorded, and the rabbit ear successfully modeled is sliced into a slice by the cryostat microtome. After the slice is stained by a hematoxylin and eosin (HE) tissue staining method and fixed by the resin, and the slice is mounted for observation. With respect to the various administration methods, the rabbits successfully modeled are divided into a therapy group for a proximal venous thrombus and a therapy group for a distal venous thrombus, and the rabbits are topically treated by the low-molecular-weight heparin (300 U/kg rabbit body weight) for therapy. […] A pretreatment method is the same as described with respect to in vitro.

Series [1] in a line: Staining of topical penetration sites of the skin with gentian violet solution. Details: species or system nude mouse. The procedure: Staining of topical penetration sites of the skin: the nude mouse skin topically pretreated by three groups, including the sonophoresis group, the 2 mg spicule group, and the group using sonophoresis and then using the spicules (the method is the same as the aforementioned method), a gentian violet solution is added into the donor compartment, stained for 24 hours, and washed by an ethanol solution, and the residue liquid on the surface is absorbed with absorbent paper, a penetration situation of a surface of the stratum corneum layer for the staining solution is observed, the stratum corneum layer and the epidermal layer of the skin are then scrapped by a blade, and a penetration situation of the dermis layer for the staining solution is observed.

For the molecule “dalteparin [low-molecular-weight heparin]”, the “state of thrombus in blood vessel (slice, FIG. 7)” value in the series with venous thrombus (sonophoresis then spicules) is listed as “almost completely dissolved”; in the series on venous thrombus (spicules alone), “not completely dissolved”. The “thrombus dissolvability degree compared with intravenous injection (FIG. 8B)” value with venous thrombus (distal venous thrombus, sonophoresis then spicules at distal end) is listed as “no significant difference”. For the same molecule, the “thrombus length variation (FIG. 8A)” value with venous thrombus (proximal venous thrombus, sonophoresis then spicules) is reported as “basically dissolved”.

For the molecule `CN(C)c1ccc(C(=C2C=CC(=[N+](C)C)C=C2)c2ccc(N(C)C)cc2)cc1` [staining solution, gentian violet], the “infiltration of staining solution into the dermis layer” value in series [1] (sonophoresis alone or spicules alone, stained 24 hours (FIGS. 6D and 6E)) was “almost no residue staining solution in the dermis layer”; in series [1] (sonophoresis and spicules, stained 24 hours, stratum corneum and epidermal layer scraped off (FIG. 6F)) it was “a large amount of the staining solution can still infiltrate into the dermis layer”.
